Data as given in patent US11229618B2 (Amarin Pharmaceuticals Ireland Limited, priority 2012, dated 2022).

Experiment: ANCHOR: plasma fatty acid concentrations, ratios and class proportions (GC/FID)
Type: in vivo, human
Conditions: for AA plasma Placebo-adjusted percent change from baseline / DHA plasma Placebo-adjusted percent change from baseline / DPAn-3 plasma Placebo-adjusted percent change from baseline / Linoleic plasma Placebo-adjusted percent change from baseline / Oleic plasma Placebo-adjusted percent change from baseline / Palmitic plasma Placebo-adjusted percent change from baseline / Ratio of AA/EPA plasma Placebo-adjusted percent change from baseline / Ratio of total ω-3/total ω-6 plasma Placebo-adjusted percent change from baseline / Stearic plasma Placebo-adjusted percent change from baseline: week 12, LS mean; for Monounsaturated, proportion of total fatty acids, plasma, Change from baseline / Saturated, proportion of total fatty acids, plasma, Change from baseline / Total ω-3, proportion of total fatty acids, plasma, Change from baseline / Total ω-6, proportion of total fatty acids, plasma, Change from baseline: LS mean (SE); for AA plasma Change from baseline / DHA plasma Change from baseline / DPAn-3 plasma Change from baseline / Linoleic plasma Change from baseline / Oleic plasma Change from baseline / Palmitic plasma Change from baseline / Ratio of AA/EPA plasma Change from baseline / Ratio of total ω-3/total ω-6 plasma Change from baseline / Stearic plasma Change from baseline: baseline to week 12, LS mean; for AA plasma End-of-treatment / DHA plasma End-of-treatment / DPAn-3 plasma End-of-treatment / Linoleic plasma End-of-treatment / Oleic plasma End-of-treatment / Palmitic plasma End-of-treatment / Ratio of AA/EPA plasma End-of-treatment / Ratio of total ω-3/total ω-6 plasma End-of-treatment / Stearic plasma End-of-treatment: week 12, mean; for Monounsaturated, proportion of total fatty acids, plasma, End-of-treatment / Saturated, proportion of total fatty acids, plasma, End-of-treatment / Total ω-3, proportion of total fatty acids, plasma, End-of-treatment / Total ω-6, proportion of total fatty acids, plasma, End-of-treatment: week 12, mean (SD)
Procedure: A multi-center, placebo-controlled, randomized, double-blind, 12-week study was performed to evaluate the efficacy and safety of >96% E-EPA in patients with fasting triglyceride levels≥200 mg/dl and <500 mg/dl despite statin therapy (the mean of two qualifying entry values needed to be ≥185 mg/dl and at least one of the values needed to be ≥200 mg/dl). The primary objective of the study was to determine the efficacy of >96% E-EPA 2 g daily and 4 g daily, compared to placebo, in lowering fasting TG levels in patients with high risk for cardiovascular disease and with fasting TG levels≥200 mg/dL and <500 mg/dL, despite treatment to LDL-C goal on statin therapy.
During the double-blind treatment period, patients were to take 2 capsules (>96% E-EPA or matching placebo) in the morning and 2 capsules in the evening for a total of 4 capsules per day. • Patients in the >96% E-EPA 2 g/day treatment group received 1>96% E-EPA 1 g capsule and 1 matching placebo capsule in the morning and in the evening. • Patients in the >96% E-EPA 4 g/day treatment group received 2>96% E-EPA 1 g capsules in the morning and evening. • Patients in the placebo group received 2 matching placebo capsules in the morning and evening.
Lipids were extracted from plasma and red blood cell (“RBC”) suspensions and converted into fatty acid methyl esters for analysis using a standard validated gas chromatography/flame ionization detection method. Fatty acid parameters were compared between EPA treatment groups and placebo using an ANCOVA model with treatment, gender, type of statin therapy, and presence of diabetes as factors, and the baseline parameter value as a covariate. LSMs, SEs, and 2-tailed 95% confidence intervals for each treatment group and for each comparison were determined.
The monounsaturated fatty acid group included myristoleic, palmitoleic, cis-vaccenic, oleic, gondoic/gadoleic, erucic and nervonic acids. The saturated fatty acid group included myristic, palmitic, stearic, arachidic, behenic and lignoceric acids. The “total ω-3” group included α-linolenic, stearidonic, eicosatrienoic, ω-3 arachidonic, eicosapentaenoic, ω-3 docosapentaenoic and docosahecaenoic acids. The “total ω-6” group included linoleic, γ-linolenic, eicosadienoic, dihomo-γ-linolenic, ω-6 arachidonic, adrenic, and ω-6 docosapentaenoic acids. The “total fatty acid” group represented the sum of the monounsaturated, saturated, total ω-3 and total ω-6 groups.

CC/C=C\C/C=C\C/C=C\C/C=C\C/C=C\CCCC(=O)OCC [IPE, all-cis eicosa-5,8,11,14,17-pentaenoic acid ethyl ester]
Monounsaturated, proportion of total fatty acids, plasma, Placebo-adjusted percent change from baseline (2 g/day vs placebo): −1.4%
Saturated, proportion of total fatty acids, plasma, Placebo-adjusted percent change from baseline (2 g/day vs placebo): −0.2%
Total ω-3, proportion of total fatty acids, plasma, Placebo-adjusted percent change from baseline (2 g/day vs placebo): 60.3%
Total ω-6, proportion of total fatty acids, plasma, Placebo-adjusted percent change from baseline (2 g/day vs placebo): −4.6%
AA plasma Placebo-adjusted percent change from baseline (2 g/day vs placebo): −19.1%
DHA plasma Placebo-adjusted percent change from baseline (2 g/day vs placebo): −0.7%
DPAn-3 plasma Placebo-adjusted percent change from baseline (2 g/day vs placebo): 88.9%
Linoleic plasma Placebo-adjusted percent change from baseline (2 g/day vs placebo): −14.5%
Oleic plasma Placebo-adjusted percent change from baseline (2 g/day vs placebo): −14.3%
Palmitic plasma Placebo-adjusted percent change from baseline (2 g/day vs placebo): −12.1%
Ratio of AA/EPA plasma Placebo-adjusted percent change from baseline (2 g/day vs placebo): −75.4%
Ratio of total ω-3/total ω-6 plasma Placebo-adjusted percent change from baseline (2 g/day vs placebo): 64.3%
Stearic plasma Placebo-adjusted percent change from baseline (2 g/day vs placebo): −12.6%
Monounsaturated, proportion of total fatty acids, plasma, Change from baseline (2 g/day): −0.7 (0.4) mol %
Saturated, proportion of total fatty acids, plasma, Change from baseline (2 g/day): −0.7 (0.3) mol %
Total ω-3, proportion of total fatty acids, plasma, Change from baseline (2 g/day): 2.1 (0.2) mol %
Total ω-6, proportion of total fatty acids, plasma, Change from baseline (2 g/day): −0.8 (0.5) mol %
AA plasma Change from baseline (2 g/day): −31.1
DHA plasma Change from baseline (2 g/day): 5.0
DPAn-3 plasma Change from baseline (2 g/day): 22.4
Linoleic plasma Change from baseline (2 g/day): −35.0
Oleic plasma Change from baseline (2 g/day): −61.7
Palmitic plasma Change from baseline (2 g/day): −50.1
Ratio of AA/EPA plasma Change from baseline (2 g/day): −11.2
Ratio of total ω-3/total ω-6 plasma Change from baseline (2 g/day): 0.1
Stearic plasma Change from baseline (2 g/day): −19.6
AA plasma End-of-treatment (2 g/day): 266.7
DHA plasma End-of-treatment (2 g/day): 62.7
DPAn-3 plasma End-of-treatment (2 g/day): 44.3
Linoleic plasma End-of-treatment (2 g/day): 1082
Oleic plasma End-of-treatment (2 g/day): 972.1
Palmitic plasma End-of-treatment (2 g/day): 1004
Ratio of AA/EPA plasma End-of-treatment (2 g/day): 3.4
Ratio of total ω-3/total ω-6 plasma End-of-treatment (2 g/day): 0.2
Stearic plasma End-of-treatment (2 g/day): 276.2
Monounsaturated, proportion of total fatty acids, plasma, End-of-treatment (2 g/day): 28.0 (2.8) mol %
Saturated, proportion of total fatty acids, plasma, End-of-treatment (2 g/day): 33.6 (2.2) mol %
Total ω-3, proportion of total fatty acids, plasma, End-of-treatment (2 g/day): 5.1 (1.2) mol %
Total ω-6, proportion of total fatty acids, plasma, End-of-treatment (2 g/day): 33.3 (3.4) mol %
Monounsaturated, proportion of total fatty acids, plasma, Placebo-adjusted percent change from baseline (4 g/day vs placebo): −5.8%
Saturated, proportion of total fatty acids, plasma, Placebo-adjusted percent change from baseline (4 g/day vs placebo): 0.4%
Total ω-3, proportion of total fatty acids, plasma, Placebo-adjusted percent change from baseline (4 g/day vs placebo): 142.2%
Total ω-6, proportion of total fatty acids, plasma, Placebo-adjusted percent change from baseline (4 g/day vs placebo): −7.4%
AA plasma Placebo-adjusted percent change from baseline (4 g/day vs placebo): −30.7%
DHA plasma Placebo-adjusted percent change from baseline (4 g/day vs placebo): −2.9%
DPAn-3 plasma Placebo-adjusted percent change from baseline (4 g/day vs placebo): 143.6%
Linoleic plasma Placebo-adjusted percent change from baseline (4 g/day vs placebo): −24.8%
Oleic plasma Placebo-adjusted percent change from baseline (4 g/day vs placebo): −30.1%
Palmitic plasma Placebo-adjusted percent change from baseline (4 g/day vs placebo): −23.3%
Ratio of AA/EPA plasma Placebo-adjusted percent change from baseline (4 g/day vs placebo): −90.3%
Ratio of total ω-3/total ω-6 plasma Placebo-adjusted percent change from baseline (4 g/day vs placebo): 165.9%
Stearic plasma Placebo-adjusted percent change from baseline (4 g/day vs placebo): −16.5%
Monounsaturated, proportion of total fatty acids, plasma, Change from baseline (4 g/day): −2.0 (0.4) mol %
Saturated, proportion of total fatty acids, plasma, Change from baseline (4 g/day): −0.5 (0.3) mol %
Total ω-3, proportion of total fatty acids, plasma, Change from baseline (4 g/day): 4.4 (0.2) mol %
Total ω-6, proportion of total fatty acids, plasma, Change from baseline (4 g/day): −1.8 (0.5) mol %
AA plasma Change from baseline (4 g/day): −60.1
DHA plasma Change from baseline (4 g/day): 2.3
DPAn-3 plasma Change from baseline (4 g/day): 31.8
Linoleic plasma Change from baseline (4 g/day): −152
Oleic plasma Change from baseline (4 g/day): −219
Palmitic plasma Change from baseline (4 g/day): −161
Ratio of AA/EPA plasma Change from baseline (4 g/day): −14.1
Ratio of total ω-3/total ω-6 plasma Change from baseline (4 g/day): 0.2
Stearic plasma Change from baseline (4 g/day): −31.2
AA plasma End-of-treatment (4 g/day): 222.8
DHA plasma End-of-treatment (4 g/day): 53.6
DPAn-3 plasma End-of-treatment (4 g/day): 50.2
Linoleic plasma End-of-treatment (4 g/day): 921.8
Oleic plasma End-of-treatment (4 g/day): 782.5
Palmitic plasma End-of-treatment (4 g/day): 843.8
Ratio of AA/EPA plasma End-of-treatment (4 g/day): 1.6
Ratio of total ω-3/total ω-6 plasma End-of-treatment (4 g/day): 0.2
Stearic plasma End-of-treatment (4 g/day): 253.4
Monounsaturated, proportion of total fatty acids, plasma, End-of-treatment (4 g/day): 26.7 (3.0) mol %
Saturated, proportion of total fatty acids, plasma, End-of-treatment (4 g/day): 33.6 (2.4) mol %
Total ω-3, proportion of total fatty acids, plasma, End-of-treatment (4 g/day): 7.1 (2.0) mol %
Total ω-6, proportion of total fatty acids, plasma, End-of-treatment (4 g/day): 32.6 (3.5) mol %
